Test results taken from ChEMBL document CHEMBL4196205, “Dihydrochalcone Glucosides from the Subaerial Parts of Thonningia sanguinea and Their in Vitro PTP1B Inhibitory Activities” (J Nat Prod, 2018).

Experiments:
[1] = target: T1, Tyrosine-protein phosphatase non-receptor type 1 (Homo sapiens) (UniProt P18031); assay: Inhibition of recombinant human PTP1B using pNPP as substrate assessed as residual activity at 30 uM after 30 mins by spectrometric method relative to control
T1 sequence (whole entry): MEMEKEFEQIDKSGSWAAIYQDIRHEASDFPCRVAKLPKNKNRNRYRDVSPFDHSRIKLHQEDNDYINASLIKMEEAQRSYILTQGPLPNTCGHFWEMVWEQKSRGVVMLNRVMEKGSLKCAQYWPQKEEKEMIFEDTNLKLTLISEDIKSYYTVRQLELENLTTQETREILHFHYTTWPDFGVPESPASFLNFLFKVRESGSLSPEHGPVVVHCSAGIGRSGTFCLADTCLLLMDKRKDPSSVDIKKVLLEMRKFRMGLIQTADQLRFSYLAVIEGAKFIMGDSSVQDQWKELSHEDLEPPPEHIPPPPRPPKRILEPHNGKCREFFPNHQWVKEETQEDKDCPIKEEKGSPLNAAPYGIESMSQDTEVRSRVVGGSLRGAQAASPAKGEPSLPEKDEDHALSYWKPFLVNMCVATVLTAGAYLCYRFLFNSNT

[2] = target: T2, Tyrosine-protein phosphatase non-receptor type 1 (Homo sapiens, UniProt P18031); assay: Inhibition of recombinant human PTP1B using pNPP as substrate assessed as residual activity after 30 mins by spectrometric method
T2 sequence (P18031 whole entry): T1 sequence (whole entry)

[3] = target: T1, Tyrosine-protein phosphatase non-receptor type 1 (Homo sapiens); assay: Inhibition of PTP1B in human HepG2 cells assessed as increase in insulin-stimulated IR tyrosine phosphorylation at Y1150/1151 residues preincubated for 30 mins followed by insulin addition measured after 5 mins by immuno blot method; type: cell-based
HepG2 [4] = assay: Cytotoxicity against human HepG2 cells assessed as decrease in cell viability at > 30 uM after 24 hrs by crystal violet staining based assay; details: hepg2, 24 h
HepG2 [5] = assay: Cytotoxicity against human HepG2 cells assessed as decrease in cell viability at > 30 uM after 24 hrs by resazurin dye based assay; details: hepg2, 24 h

| Compound | Activity [1] [%] | IC50 [2] [µM] | further results |
| --- | --- | --- | --- |
| O=C(OC[C@H]1O[C@@H](Oc2cc(O)cc(O)c2C(=O)CCc2ccc(O)c(O)c2)[C@H](O)[C@@H](O)[C@@H]1O)c1cc(O)c(O)c(O)c1 | 91.7 | – | – |
| COc1cc(C[C@H]2CO[C@H](c3ccc(O)c(OC)c3)[C@H]2CO)ccc1O | 86.1 | – | – |
| COc1cc(/C=C/CO)ccc1O[C@@H]1O[C@H](CO)[C@@H](O)[C@H](O)[C@H]1O | 99.2 | – | – |
| COc1cc([C@H]2OC[C@H]3[C@@H]2CO[C@@H]3c2ccc(O)c(OC)c2)ccc1O | 98.6 | – | – |
| O=C(CCc1ccc(O)c(O)c1)c1c(O)cc(O)cc1O[C@@H]1O[C@H](CO)[C@@H](O)[C@H](O)[C@H]1O | 102 | – | – |
| O=C(CCc1ccccc1)c1c(O)cc(O[C@@H]2O[C@H](CO)[C@@H](O)[C@H](O)[C@H]2O)cc1O | 97.7 | – | – |
| O=C(OC[C@H]1O[C@@H](Oc2cc(O)c(C(=O)CCc3ccccc3)c(O)c2)[C@H](O)[C@@H](O)[C@@H]1O)c1cc(O)c(O)c(O)c1 | 99.4 | – | – |

More lines, main results first:

| Activity [1] [%] | IC50 [2] [µM] | Compound | further results |
| --- | --- | --- | --- |
| 20.8 | 19.3 | O=C(O[C@@H]1[C@@H](O)[C@H](Oc2cc(O)cc(O)c2C(=O)CCc2ccc(O)cc2)O[C@@H]2COC(=O)c3cc(O)c(O)c(O)c3-c3c(cc(O)c(O)c3O)C(=O)O[C@@H]12)c1cc(O)c(O)c(O)c1 | – |
| 1.9 | 4.4 | O=C(O[C@@H]1[C@@H](O)[C@H](Oc2cc(O)c(C(=O)CCc3ccccc3)c(O)c2)O[C@@H]2COC(=O)c3cc(O)c(O)c(O)c3-c3c(cc(O)c(O)c3O)C(=O)O[C@@H]12)c1cc(O)c(O)c(O)c1 [THONNINGIANIN A] | inhibition [3]: Dose-dependent effect; Activity (HepG2 [4]): Toxic; Activity (HepG2 [5]): Toxic |
| 28.5 | 21.7 | O=C1OC[C@H]2O[C@@H](Oc3cc(O)c(C(=O)CCc4ccccc4)c(O)c3)[C@H](O)[C@@H](O)[C@@H]2OC(=O)c2cc(O)c(O)c(O)c2-c2c1cc(O)c(O)c2O [THONNINGIANIN B] | – |
| 29.2 | 24.7 | O=C(O[C@@H]1[C@@H](O)[C@H](Oc2cc(O)cc(O)c2C(=O)CCc2ccc(O)c(O)c2)O[C@@H]2COC(=O)c3cc(O)c(O)c(O)c3-c3c(cc(O)c(O)c3O)C(=O)O[C@@H]12)c1cc(O)c(O)c(O)c1 | – |
| 84.4 | – | O=C1OC[C@H]2O[C@@H](Oc3cc(O)cc(O)c3C(=O)CCc3ccc(O)c(O)c3)[C@H](O)[C@@H](O)[C@@H]2OC(=O)c2cc(O)c(O)c(O)c2-c2c1cc(O)c(O)c2O | – |
| 30.9 | 23.8 | O=C1OC[C@H]2O[C@@H](Oc3cc(O)c(C(=O)CCc4ccc(O)cc4)c(O)c3)[C@H](O)[C@@H](O)[C@@H]2OC(=O)c2cc(O)c(O)c(O)c2-c2c1cc(O)c(O)c2O | – |
